Three compounds from patent publication US12161722B2, “Bifunctional heterocyclic compound having BTK degradation function via ubiquitin proteasome pathway, and use thereof” (KOREA RESEARCH INSTITUTE OF CHEMICAL TECHNOLOGY, priority 2021, dated 2024) can be followed below.

By DC50 is commonly meant the concentration giving 50% degradation.

One assay has as its target T1, WT BTK protein (Homo sapiens, UniProt Q06187).
T1 construct: measured for intracellular BTK protein levels by Western blotting; endogenous in cells; host or cells: TMD-8 or RAMOS cells
The experiment in a line: BTK protein degradation assay (Western blotting), WT BTK. The assay is classed as cell-based. The following applies: concentration range accounting for 50% degradation of WT BTK protein, TMD-8 or RAMOS cells, 24 hours. Put shortly:
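TMD-8 cells (1×10^6 cells/mL) treated 24 h with compound serial dilutions, then lysed in RIPA. Equal protein loads analysed by Western blot for BTK with GAPDH/β-actin as loading controls; activity binned by concentration giving 50% WT BTK degradation.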
On the technique in general: In western blotting, separated proteins are transferred to a membrane and probed.

A further assay concerns the target T2, C481S BTK protein (Homo sapiens, UniProt Q06187, C481S).
T2 construct: expressed in transfected cells; host or cells: 293T BTK MUT (C481S) cells
The experiment in a line: BTK protein degradation assay (Western blotting), C481S BTK. Format: cell-based. Conditions: concentration range accounting for 50% degradation of C481S BTK protein, 293T BTK MUT (C481S) cells. The gist of the method: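 TMD-8, RAMOS or 293T BTK C481S cells were treated 24 h with compounds from 10-fold DMSO stock series (10 to 0.0001 mM). BTK was measured by Western blot with GAPDH/β-actin references. Activity was binned by concentration giving 50% degradation: +++ (0.0001-0.01 μM), ++ (0.01-1 μM), + (1-10 μM), − (>10 μM).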

T2 sequence (Q06187 whole entry C481S): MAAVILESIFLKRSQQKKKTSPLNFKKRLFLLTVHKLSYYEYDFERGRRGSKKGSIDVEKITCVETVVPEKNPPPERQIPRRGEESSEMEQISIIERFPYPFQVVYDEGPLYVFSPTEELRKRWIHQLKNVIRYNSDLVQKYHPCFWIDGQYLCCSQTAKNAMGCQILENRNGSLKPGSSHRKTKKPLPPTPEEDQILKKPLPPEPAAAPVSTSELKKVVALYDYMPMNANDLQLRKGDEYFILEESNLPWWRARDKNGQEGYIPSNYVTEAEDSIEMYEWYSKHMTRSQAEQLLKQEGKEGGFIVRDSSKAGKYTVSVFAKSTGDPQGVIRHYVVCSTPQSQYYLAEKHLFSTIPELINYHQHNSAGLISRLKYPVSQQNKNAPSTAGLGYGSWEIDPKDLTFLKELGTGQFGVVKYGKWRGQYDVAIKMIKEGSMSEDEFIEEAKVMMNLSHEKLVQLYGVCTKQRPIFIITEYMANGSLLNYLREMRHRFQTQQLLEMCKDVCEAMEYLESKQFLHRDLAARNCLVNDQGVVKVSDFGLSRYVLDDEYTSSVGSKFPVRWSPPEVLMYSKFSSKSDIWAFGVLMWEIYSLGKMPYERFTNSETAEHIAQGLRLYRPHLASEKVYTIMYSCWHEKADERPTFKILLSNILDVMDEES
T1 sequence (Q06187 whole entry): as the sequence (Q06187 whole entry C481S) above, with S481C counted along it

As to `Cc1cccc(C)c1Nc1nn(C)c2nc(Nc3ccc4c(c3)CN(C(=O)[C@@H]3CCCN3C(=O)CNc3ccc5c(c3)C(=O)N(C3CCC(=O)NC3=O)C5=O)CC4)ncc12` (stereo partly drawn) [Compound 35, 5-((2-((S)-2-(7-((3-((2,6-Dimethylphenyl)amino)-1-methyl-1H-pyrazolo[3,4-d]pyrimidin-6-yl)amino)-1,2,3,4-tetrahydroisoquinoline-2-carbonyl)pyrrolidin-1-yl)-2-oxoethyl)amino)-2-(2,6-dioxopiperidin-3-yl)isoindoline-1,3-dione], the results for the DC50 at WT BTK protein and on C481S BTK protein were 0.1 to 10 nM and 10 to 1000 nM, respectively.
In the case of `Cc1cccc(C)c1Nc1nn(C)c2nc(Nc3ccc4c(c3)CN(C(=O)c3cn(CCOCCOCCOCCNC(=O)CNc5cccc6c5C(=O)N(C5CCC(=O)NC5=O)C6=O)nn3)CC4)ncc12` (stereo not drawn) [Compound 19, N-(2-(2-(2-(2-(4-(7-((3-((2,6-Dimethylphenyl)amino)-1-methyl-1H-pyrazolo[3,4-d]pyrimidin-6-yl)amino)-1,2,3,4-tetrahydroisoquinoline-2-carbonyl)-1H-1,2,3-triazol-1-yl)ethoxy)ethoxy)ethoxy)ethyl)-2-((2-(2,6-dioxopiperidin-3-yl)-1,3-dioxoisoindolin-4-yl)amino)acetamide], the DC50 was 10 to 1000 nM on WT BTK protein and more than 10000 nM at C481S BTK protein.
As to `Cc1cccc(C)c1Nc1nn(C)c2nc(Nc3ccc4c(c3)CN(C(=O)CCOCCOCCOCCOCCNC(=O)COc3ccc5c(c3)C(=O)N(C3CCC(=O)NC3=O)C5=O)CC4)ncc12` (stereo not drawn) [Compound 16, N-(15-(7-((3-((2,6-Dimethylphenyl)amino)-1-methyl-1H-pyrazolo[3,4-d]pyrimidin-6-yl)amino)-3,4-dihydroisoquinolin-2 (1H)-yl)-15-oxo-3,6,9,12-tetraoxapentadecyl)-2-((2-(2,6-dioxopiperidin-3-yl)-1,3-dioxoisoindolin-5-yl)oxy)acetamide], the DC50 lay in the range of 0.1 to 10 nM at WT BTK protein and 1000 to 10000 nM on C481S BTK protein.
